Experimental findings from patent US9643967B2, “Pyrrolo[3,2-c]pyridine derivatives as TLR inhibitors” (TAKEDA PHARMACEUTICAL COMPANY LIMITED, priority 2013, dated 2017) are described below.

For one assay, the target named is T1, hTLR9 (Homo sapiens, UniProt Q9NR96).
T1 construct: expressed in transfected cells; host or cells: HEK-Blue-hTLR9 cells (HEK293)
T1 sequence (Q9NR96 26-1032): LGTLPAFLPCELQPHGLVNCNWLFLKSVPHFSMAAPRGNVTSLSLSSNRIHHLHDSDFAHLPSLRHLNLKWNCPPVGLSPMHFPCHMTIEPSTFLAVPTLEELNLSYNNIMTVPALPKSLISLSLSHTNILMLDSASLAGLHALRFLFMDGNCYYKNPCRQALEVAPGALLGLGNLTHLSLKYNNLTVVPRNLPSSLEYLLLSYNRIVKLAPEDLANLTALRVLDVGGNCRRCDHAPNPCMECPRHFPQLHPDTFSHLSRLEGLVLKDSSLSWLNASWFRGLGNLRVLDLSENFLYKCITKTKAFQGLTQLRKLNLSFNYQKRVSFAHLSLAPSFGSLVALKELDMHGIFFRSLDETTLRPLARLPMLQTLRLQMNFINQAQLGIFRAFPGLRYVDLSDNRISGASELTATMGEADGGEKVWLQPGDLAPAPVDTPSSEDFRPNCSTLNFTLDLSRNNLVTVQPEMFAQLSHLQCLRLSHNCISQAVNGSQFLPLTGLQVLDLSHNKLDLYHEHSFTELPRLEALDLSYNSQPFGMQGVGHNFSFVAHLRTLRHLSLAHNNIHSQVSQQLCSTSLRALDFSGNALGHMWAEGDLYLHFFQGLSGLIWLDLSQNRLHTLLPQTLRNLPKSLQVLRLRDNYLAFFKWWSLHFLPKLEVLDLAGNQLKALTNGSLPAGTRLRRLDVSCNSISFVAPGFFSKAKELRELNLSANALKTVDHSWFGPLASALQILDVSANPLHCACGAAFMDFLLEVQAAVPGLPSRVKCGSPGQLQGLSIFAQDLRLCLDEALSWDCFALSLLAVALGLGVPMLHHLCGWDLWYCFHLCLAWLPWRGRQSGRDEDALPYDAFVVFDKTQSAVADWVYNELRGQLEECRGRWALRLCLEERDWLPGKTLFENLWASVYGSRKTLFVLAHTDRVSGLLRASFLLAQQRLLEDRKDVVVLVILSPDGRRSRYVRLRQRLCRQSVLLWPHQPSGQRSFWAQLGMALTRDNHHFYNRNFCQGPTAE
As to the kind of experiment: hTLR9 antagonism (SEAP inhibition assay) in HEK-Blue-hTLR9 (HEK293) cells, ODN-2006 stimulated. Type of assay: cell-based. The conditions noted are these: 1 μM; SEAP, HEK-Blue-hTLR9 cells.
Consider `Cc1cc2c(cc(CCN3CCOCC3)n2C)c(C2CCC(N3CCN(C(C)C)CC3)CC2)n1` (stereo not shown) [Example B27, 4-[2-[4-[4-(4-isopropylpiperazin-1-yl)cyclohexyl]-1,6-dimethyl-pyrrolo[3,2-c]pyridin-2-yl]ethyl]morpholine], for which the “hTLR9 inhibitory activity (% at 1 μM)” value came to 95.8%.

The same assay, now with this note: HEK-Blue hTLR9, 1 μM; SEAP, HEK-Blue-hTLR9 cells; read-out: hTLR9 inhibitory activity (% at 1 μM).
For `Cc1nc(-c2ccc(N3CCN(C(C)C)CC3)cc2)c2cc(CCN3CCOCC3)[nH]c2c1C` [Example B6, 4-[2-[4-[4-(4-isopropylpiperazin-1-yl)phenyl]-6,7-dimethyl-1H-pyrrolo[3,2-c]pyridin-2-yl]ethyl]morpholine], the inhibition at 1 µM was found to be 79.7%.

In the case of `CCN1CCN(c2ccc(-c3nc(C)c(C)c4[nH]c(CCN5CCOCC5)cc34)cc2)CC1` [Example B8, 4-[2-[4-[4-(4-ethylpiperazin-1-yl)phenyl]-6,7-dimethyl-1H-pyrrolo[3,2-c]pyridin-2-yl]ethyl]morpholine], the inhibition at 1 µM was found to be 93.7%.

Regarding `Cc1nc(-c2ccc(N3CCN(C(C)C)CC3)cc2)c2cc(CCN3CCCC3)[nH]c2c1C` [Example B10, 4-[4-(4-isopropylpiperazin-1-yl)phenyl]-6,7-dimethyl-2-(2-pyrrolidin-1-ylethyl)-1H-pyrrolo[3,2-c]pyridine], the inhibition at 1 µM stood at 93.1%.

For `Cc1cc2c(cc(CCN3CCOCC3)n2C)c(-c2ccc(N3CCN(C(C)C)CC3)cc2)n1` [Example B11, 4-[2-[4-[4-(4-isopropylpiperazin-1-yl)phenyl]-1,6-dimethyl-pyrrolo[3,2-c]pyridin-2-yl]ethyl]morpholine], the inhibition at 1 µM was 80%.

Take `Cc1cc2c(cc(CCN3CCOCC3)n2C)c(-c2ccc(N3CCN(C(C)C)CC3)c(F)c2)n1` [Example B14, 4-[2-[4-[3-fluoro-4-(4-isopropylpiperazin-1-yl)phenyl]-1,6-dimethyl-pyrrolo[3,2-c]pyridin-2-yl]ethyl]morpholine]: the inhibition at 1 µM is 88.7%.

Consider `Cc1cc2c(cc(CCN3CCOCC3)n2C)c(-c2ccc(N3CCN(C(C)C)CC3)cc2C)n1` [Example B15, 4-[2-[4-[4-(4-isopropylpiperazin-1-yl)-2-methyl-phenyl]-1,6-dimethyl-pyrrolo[3,2-c]pyridin-2-yl]ethyl]morpholine], for which the inhibition at 1 µM amounted to 93.3%.

Take `Cc1cc2c(cc(CCN3CCOCC3)n2C)c(-c2ccc(N3CCN(C(C)C)CC3)c(C)c2)n1` [Example B16, 4-[2-[4-[4-(4-isopropylpiperazin-1-yl)-3-methyl-phenyl]-1,6-dimethyl-pyrrolo[3,2-c]pyridin-2-yl]ethyl]morpholine]: the inhibition at 1 µM was 91%.

Take `Cc1cc2c(cc(CCN3CCOCC3)n2C)c(-c2ccc(N3CCN(C(C)C)CC3)cc2C(F)(F)F)n1` [Example B17, 4-[2-[4-[4-(4-isopropylpiperazin-1-yl)-2-(trifluoromethyl)phenyl]-1,6-dimethyl-pyrrolo[3,2-c]pyridin-2-yl]ethyl]morpholine]: the inhibition at 1 µM came to 91.5%.

For the compound `Cc1cc2c(cc(CCN3CCOCC3)n2C)c(-c2ccc(N3CCN(C(C)C)CC3)c(C(F)(F)F)c2)n1` [Example B18, 4-[2-[4-[4-(4-isopropylpiperazin-1-yl)-3-(trifluoromethyl)phenyl]-1,6-dimethyl-pyrrolo[3,2-c]pyridin-2-yl]ethyl]morpholine], the inhibition at 1 µM amounted to 99.3%.

In the case of `Cc1cc2c(cc(CCN3CCOCC3)n2C)c(-c2ccc(N3CCN(C(C)C)CC3)cc2F)n1` [Example B19, 4-[2-[4-[2-fluoro-4-(4-isopropylpiperazin-1-yl)phenyl]-1,6-dimethyl-pyrrolo[3,2-c]pyridin-2-yl]ethyl]morpholine], the inhibition at 1 µM was 100%.

Consider `COc1cc(N2CCN(C(C)C)CC2)ccc1-c1nc(C)cc2c1cc(CCN1CCOCC1)n2C` [Example B20, 4-[2-[4-[4-(4-isopropylpiperazin-1-yl)-2-methoxy-phenyl]-1,6-dimethyl-pyrrolo[3,2-c]pyridin-2-yl]ethyl]morpholine], for which the inhibition at 1 µM worked out at 100%.

Turning to `Cc1cc2c(cc(CCN3CCOCC3)n2C)c(-c2cccc(N3CCN(C(C)C)CC3)c2)n1` [Example B21, 4-[2-[4-[3-(4-isopropylpiperazin-1-yl)phenyl]-1,6-dimethyl-pyrrolo[3,2-c]pyridin-2-yl]ethyl]morpholine], the inhibition at 1 µM came out at 100%.

Consider `COc1cc(-c2nc(C)cc3c2cc(CCN2CCOCC2)n3C)ccc1N1CCN(C(C)C)CC1` [Example B22, 4-[2-[4-[4-(4-isopropylpiperazin-1-yl)-3-methoxy-phenyl]-1,6-dimethyl-pyrrolo[3,2-c]pyridin-2-yl]ethyl]morpholine], for which the inhibition at 1 µM turned out to be 99.7%.

In the case of `Cc1cc2c(cc(CCN3CCOCC3)n2C)c(-c2ccc(N3CCN(C(C)C)[C@@H](C)C3)cc2)n1` [Example B23, 4-[2-[4-[4-[(3S)-4-isopropyl-3-methyl-piperazin-1-yl]phenyl]-1,6-dimethyl-pyrrolo[3,2-c]pyridin-2-yl]ethyl]morpholine], the inhibition at 1 µM came to 99.2%.

As to `Cc1cc2c(cc(CCN3CCOCC3)n2C)c(C2CCC(N3CCN(C(C)C)CC3)CC2)n1` (stereo not shown) [Example B26, 4-[2-[4-[4-(4-isopropylpiperazin-1-yl)cyclohexyl]-1,6-dimethyl-pyrrolo[3,2-c]pyridin-2-yl]ethyl]morpholine], the inhibition at 1 µM was determined as 89.9%.

For `Cc1cc2c(cc(CCN3CCOCC3)n2C)c(-c2ccc(C3CCN(C(C)C)CC3)cc2)n1` [Example B31, 4-[2-[4-[4-(1-isopropyl-4-piperidyl)phenyl]-1,6-dimethyl-pyrrolo[3,2-c]pyridin-2-yl]ethyl]morpholine], the inhibition at 1 µM was 99.4%.

On to `CC(C)N1CCN(c2ccc(-c3nccc4[nH]c(CCCN5CCOCC5)cc34)cc2)CC1` [Example C1, 4-[3-[4-[4-(4-isopropylpiperazin-1-yl)phenyl]-1H-pyrrolo[3,2-c]pyridin-2-yl]propyl]morpholine], for which the inhibition at 1 µM came to 99.2%.

For the compound `CN1CCN(c2ccc(-c3nccc4[nH]c(CCCN5CCOCC5)cc34)cc2)CC1` [Example C2, 4-[3-[4-[4-(4-methylpiperazin-1-yl)phenyl]-1H-pyrrolo[3,2-c]pyridin-2-yl]propyl]morpholine], the inhibition at 1 µM worked out at 100%.

Regarding `Cc1cc2[nH]c(CCCN3CCOCC3)cc2c(-c2ccc(N3CCN(C(C)C)CC3)cc2)n1` [Example C3, 4-[3-[4-[4-(4-isopropylpiperazin-1-yl)phenyl]-6-methyl-1H-pyrrolo[3,2-c]pyridin-2-yl]propyl]morpholine], the inhibition at 1 µM amounted to 94.8%.

`Cc1cc2[nH]c(CCCN3CCCCC3)cc2c(-c2ccc(N3CCN(C(C)C)CC3)cc2)n1` [Example C5, 4-[4-(4-isopropylpiperazin-1-yl)phenyl]-6-methyl-2-[3-(1-piperidyl)propyl]-1H-pyrrolo[3,2-c]pyridine]: the inhibition at 1 µM worked out at 94.7%.

As to `Cc1cc2c(cc(CCCN3CCOCC3)n2C)c(-c2ccc(N3CCN(C(C)C)CC3)cc2)n1` [Example C6, 4-[3-[4-[4-(4-isopropylpiperazin-1-yl)phenyl]-1,6-dimethyl-pyrrolo[3,2-c]pyridin-2-yl]propyl]morpholine], the inhibition at 1 µM was found to be 99.1%.

Another assay concerns lupus-prone MRL lpr/lpr mice. Kind of assay: Mouse lupus disease model, anti-dsDNA IgG titers (ELISA). Type of assay: in vivo. The conditions noted are these: female MRL/lpr mice; 10 mg/kg once daily oral; 9 weeks; 10 mg/kg. The method, then:
Mouse Lupus Disease Model
Examples B6 and B11 were tested in well studied mouse model of lupus, lupus-prone MRL lpr/lpr mice that develop disease similar to human SLE [J Exp Med., 1978, 148 (5), 1198-1215]. These mice develop spontaneous systemic autoimmunity with both molecular (IFN signature) and clinical (autoantibody production and glomerulonephritis) features similar to human SLE. Anti-dsDNA antibodies are correlated with human SLE and the reduction in anti-dsDNA antibodies is believed to be of potential clinical benefit. Positive TLR7 and/or TLR9 target validation results have been reported for this disease model.
Mouse Lupus Disease Model Strain:
Female MRL/lpr mice were purchased from Jackson Laboratories (USA) which manifest spontaneous lupus disease. Female MRL/lpr mice were treated for 9 weeks by oral route once a day with TLR-7/9 antagonists [Examples B6 and B11] at 3, 10 and 30 mg/kg doses. Prednisolone (2 mg/kg, P.O., QD) was used as a positive control during the studies. At the end of treatment period, animals were sacrificed and blood samples were collected to estimate anti-dsDNA IgG titers using anti-dsDNA IgG ELISA kit, Alpha Diagnostics, USA.
On to `Cc1nc(-c2ccc(N3CCN(C(C)C)CC3)cc2)c2cc(CCN3CCOCC3)[nH]c2c1C` [Example B6, 4-[2-[4-[4-(4-isopropylpiperazin-1-yl)phenyl]-6,7-dimethyl-1H-pyrrolo[3,2-c]pyridin-2-yl]ethyl]morpholine], for which the “anti-dsDNA IgG after 9 weeks of treatment” value is “Significant reduction”.

Still in this assay, the particulars now being: female MRL/lpr mice; oral QD; 3, 10 and 30 mg/kg; 6 weeks.
For `Cc1nc(-c2ccc(N3CCN(C(C)C)CC3)cc2)c2cc(CCN3CCOCC3)[nH]c2c1C` [Example B6, 4-[2-[4-[4-(4-isopropylpiperazin-1-yl)phenyl]-6,7-dimethyl-1H-pyrrolo[3,2-c]pyridin-2-yl]ethyl]morpholine], the “mean anti-dsDNA IgG titers after 6 weeks of treatment” value is given as “trend towards dose dependent reduction”.

As to `Cc1cc2c(cc(CCN3CCOCC3)n2C)c(-c2ccc(N3CCN(C(C)C)CC3)cc2)n1` [Example B11, 4-[2-[4-[4-(4-isopropylpiperazin-1-yl)phenyl]-1,6-dimethyl-pyrrolo[3,2-c]pyridin-2-yl]ethyl]morpholine], the “mean anti-dsDNA IgG titers after 6 weeks of treatment” value was “dose dependent reduction”.
